# According to patent publication US7354940B2, “2,5-dioxoimidazolidin-4-yl acetamines and analogues as inhibitors of metalloproteinase mmp12” (AstraZeneca AB, priority 2002, dated 2008):
# Biological target: T1, Recombinant human MMP12 catalytic domain (Homo sapiens, UniProt P39900)
# T1 construct: Recombinant human MMP12 catalytic domain; made in house
# Assay: Isolated enzyme assay (MMP12 enzyme assay)
# Type: biochemical
# Conditions: fluorogenic substrate Mac-Pro-Cha-Gly-Nva-His-Ala-Dpa-NH2, 60 minutes at room temperature, pH 7.3
# Description: Recombinant human MMP12 catalytic domain may be expressed and purified as described by Parkar A. A. et al, (2000), Protein Expression and Purification, 20:152. The purified enzyme can be used to monitor inhibitors of activity as follows: MMP12 (50 ng/ml final concentration) is incubated for 60 minutes at room temperature with the synthetic substrate Mac-Pro-Cha-Gly-Nva-His-Ala-Dpa-NH2 in assay buffer (0.1M “Tris-HCl” (trade mark) buffer, pH 7.3 containing 0.1M NaCl, 20 mM CaCl2, 0.020 mM ZnCl and 0.05% (w/v) “Brij 35 ” (trade mark) detergent) in the presence (5 concentrations) or absence of inhibitors. Activity is determined by measuring the fluorescence at λex 320 nm and λem 405 nm. Percent inhibition is calculated as follows: % Inhibition is equal to the [Fluorescenceplus inhibitor−Fluorescencebackground] divided by the [Fluorescenceminus inhibitor−Fluorescenebackground].
# T1 sequence (P39900 106-263 limits assumed): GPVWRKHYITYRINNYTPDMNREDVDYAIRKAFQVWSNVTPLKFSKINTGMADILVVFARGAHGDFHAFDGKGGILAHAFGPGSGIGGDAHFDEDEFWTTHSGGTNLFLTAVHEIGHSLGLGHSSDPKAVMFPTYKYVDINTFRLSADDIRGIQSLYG
row,IC50 [nM],SMILES
1,22,"O=C(CC1NC(=O)NC1=O)NCCc1ccc(-c2ccc(F)cc2)cc1 (stereo not shown) [Example 1, 2-(2,5-Dioxoimidazolidin-4-yl)-N-[2-(4′-fluoro-biphenyl-4-yl)-ethyl]-acetamide]"
2,7,"N#Cc1ccc(-c2ccc(CCNC(=O)CC3NC(=O)NC3=O)cc2)cc1 (stereo not shown) [Example 2, N-[2-(4′-Cyano-biphenyl-4-yl)-ethyl]-2-(2,5-dioxoimidazolidin-4-yl)-acetamide]"
3,32,"O=C(CC1NC(=O)NC1=O)NCCc1ccc(-c2ccccc2)cc1 (stereo not shown) [Example 5, N-(2-Biphenyl-4-yl-ethyl)-2-(2,5-dioxoimidazolidin-4-yl)-acetamide]"
4,6,"O=C(CC1NC(=O)NC1=O)NCCc1ccc(-c2cccs2)cc1 (stereo not shown) [Example 14, 2-(2,5-Dioxoimidazolidin-4-yl)-N-[2-(4-thiophen-2-yl-phenyl)ethyl]-acetamide]"
5,8,"O=C(CC1NC(=O)NC1=O)NCCc1ccc(-c2cc(Cl)cc(Cl)c2)cc1 (stereo not shown) [Example 21, N-[2-(3′,5′-Dichloro-biphenyl-4-yl)ethyl]-2-(2,5-dioxoimidazolidin-4-yl)-acetamide]"
6,15,"Cc1cccc(-c2ccc(CCNC(=O)CC3NC(=O)NC3=O)cc2)c1 (stereo not shown) [Example 22, 2-(2,5-Dioxoimidazolidin-4-yl)-N-[2-(3′-methyl-biphenyl-4-yl)ethyl]-acetamide]"
7,6,"O=C(CC1NC(=O)NC1=O)NCCc1ccc(-c2cc3ccccc3o2)cc1 (stereo not shown) [Example 23, N-[2-(4-Benzofuran-2-yl-phenyl)ethyl]-2-(2,5dioxoimidazolidin-4-yl)-acetamide]"
8,4,"COc1cccc(-c2ccc(CCNC(=O)CC3NC(=O)NC3=O)cc2)c1 (stereo not shown) [Example 24, 2-(2,5-Dioxoimidazolidin-4-yl)-N-[2-(3′-methoxy-biphenyl-4-yl)ethyl]-acetamide]"
9,17,"CC(=O)c1ccc(-c2ccc(CCNC(=O)CC3NC(=O)NC3=O)cc2)cc1 (stereo not shown) [Example 26, N-[2-(4′-Acetyl-biphenyl-4-yl)ethyl]-2-(2,5-dioxoimidazolidin-4-yl)-acetamide]"
10,5,"O=C(CC1NC(=O)NC1=O)NCCc1ccc(-c2cc3ccccc3s2)cc1 (stereo not shown) [Example 27, N-[2-(4-Benzo[b]thiophen-2-yl-phenyl)ethyl]-2-(2,5-dioxoimidazolidin-4-yl)-acetamide]"
